Like-named read-outs stand apart in the source and are kept apart here.
Experiments:
[1] = molecular target: T1, Human α7 nAChR (Homo sapiens, UniProt P36544); assay: Competition binding to receptors in membrane preparations, human α7 ([3H]-epibatidine)
T1 construct: expressed in transfected cells; host or cells: HEK cells co-expressing RIC3 (from J. Lindstrom, U. Pennsylvania)
Procedure: (§1) SH-EP1/human α4β2 (Eaton et al., 2003), SH-EP1/human α4β4 (Gentry et al., 2003), SH-EP1/α6β3β4α5 (Grinevich et al., 2005), TE671/RD and SH-SY5Y cell lines (obtained from Dr. Ron Lukas, Barrow Neurological Institute) were maintained in proliferative growth phase in Dulbecco's modified Eagle's medium (Gibco/BRL) with 10% horse serum (Gibco BRL), 5% fetal bovine serum (HyClone, Logan Utah), 1 mM sodium pyruvate, 4 mM L-glutamine. For maintenance of stable transfectants, the α4β2 and α4β4 cell media was supplemented with 0.25 mg/mL zeocin and 0.13 mg/mL hygromycin B. Selection was maintained for the α6β3β4α5 cells with 0.25 mg/mL of zeocin, 0.13 mg/mL of hygromycin B, 0.4 mg/mL of geneticin, and 0.2 mg/mL of blasticidin. HEK/human α7/RIC3 cells (obtained from J. Lindstrom, U. Pennsylvania) were maintained in proliferative growth phase in Dulbecco's modified Eagle's medium (Gibco/BRL) with 10% fetal bovine serum (HyClone, Logan Utah), 1 mM sodium pyruvate, 4 mM L-glutamine, 0.4 mg/mL geneticin; 0.2 mg/ml hygromycin B.
(§2) Cells were harvested in ice-cold PBS, pH 7.4, then homogenized with a polytron (Brinkmann Instruments, Westbury, N.Y.). Homongenates were centrifuged at 40,000 g for 20 minutes (4° C.). The pellet was resuspended in PBS and protein concentration determined using the Pierce BCA Protein Assay kit (Pierce Biotechnology, Rockford, Ill.).
(§3) Binding to nicotinic receptors was assayed on membranes using standard methods adapted from published procedures (Lippiello and Fernandes, 1986; Davies et al., 1999). In brief, membranes were reconstituted from frozen stocks (approximately 0.2 mg protein) and incubated for 2 h on ice in […] assay buffer (PBS) in the presence of competitor compound (0.001 nM to […]) and radioligand. [^3H]-nicotine (L-(−)-[N-methyl-3H]-nicotine, 69.5 Ci/mmol, Perkin-Elmer Life Sciences) was used for human α4β2 binding studies. [^3H]-epibatidine (52 Ci/mmol, Perkin-Elmer Life Sciences) was used for binding studies at the other receptor subtypes. Incubation was terminated by rapid filtration on a multimanifold tissue harvester (Brandel, Gaithersburg, Md.) using GF/B filters presoaked in 0.33% polyethyleneimine (w/v) to reduce non-specific binding. Filters were washed 3 times and the radioactivity retained was determined by liquid scintillation counting.
(§4) Binding data were expressed as percent total control binding. Replicates for each point were averaged and plotted against the log of drug concentration. The IC50 (concentration of the compound that produces 50% inhibition of binding) was determined by least squares non-linear regression using GraphPad Prism software (GraphPAD, San Diego, Calif.). Ki was calculated using the Cheng-Prusoff equation (Cheng and Prusoff, 1973).

[2] = molecular target: Rat Ganglion (Rattus norvegicus, UniProt P04757+P12392); assay: Competition binding to receptors in membrane preparations, rat ganglion subtype ([3H]-epibatidine)
Procedure: as §3, §4

[3] = molecular target: T2, Human α4β2 (Homo sapiens, UniProt P17787+P43681); assay: Competition binding to receptors in membrane preparations, human α4β2 ([3H]-nicotine)
T2 construct: expressed in transfected cells; obtained from Dr. Ron Lukas, Barrow Neurological Institute
Procedure: as §1, §2, §3, §4

[4] = molecular target: T3, Human Ganglion (Homo sapiens, UniProt P30926+P32297); assay: Competition binding to receptors in membrane preparations, human ganglion subtype ([3H]-epibatidine)
T3 construct: endogenous in cells
Procedure: as §1, §2, §3, §4

Compound: CN[C@@H](C)C/C=C/c1cncc(O[C@H]2CCN(C(=O)C(C)(C)C)C2)c1
- Ki [1]: 100 µM
- Ki [2]: 130 µM
- Ki ([3]; read-out: Human α4β2 Ki): 0.0075 µM
- Ki [4]: 19 µM

Compound: CCCOC(=O)N1CC[C@H](Oc2cncc(/C=C/C[C@H](C)NC)c2)C1
- Ki ([3]; read-out: Human α4β2 Ki): 0.0077 µM
- Ki ([4]; read-out: Human Ganglion Ki): 25 µM

Compound: CN[C@@H](C)C/C=C/c1cncc(O[C@@H]2CCN(C(=O)C3CCC3)C2)c1
- Ki [1]: 58 µM
- Ki [2]: 45 µM
- Ki ([3]; read-out: Human α4β2 Ki): 0.0061 µM
- Ki [4]: 26 µM

Compound: CCCOC(=O)N1CC[C@@H](Oc2cncc(/C=C/C[C@H](C)NC)c2)C1
- Ki ([3]; read-out: Human α4β2 Ki): 0.0051 µM
- Ki ([4]; read-out: Human Ganglion Ki): 37 µM

Compound: CN[C@@H](C)C/C=C/c1cnc(Cl)c(O[C@@H]2CCN(C(=O)C3CCC3)C2)c1
- Ki [1]: 45 µM
- Ki ([3]; read-out: Human α4β2 Ki): 0.0015 µM

Compound: CN[C@@H](C)C/C=C/c1cncc(O[C@H]2CCN(C(=O)C3CCCC3)C2)c1
- Ki [1]: 85 µM
- Ki [2]: 6.9 µM
- Ki ([3]; read-out: Human α4β2 Ki): 0.0078 µM
- Ki [4]: 13 µM

Compound: CN[C@@H](C)C/C=C/c1cnc(Cl)c(O[C@@H]2CCN(C(=O)CC3CCCC3)C2)c1
- Ki [1]: 30 µM
- Ki ([3]; read-out: Human α4β2 Ki): 0.0075 µM

Compound: CN[C@@H](C)C/C=C/c1cncc(O[C@@H]2CCN(C(=O)CCC(F)(F)F)C2)c1
- Ki [1]: 170 µM
- Ki [2]: 43 µM
- Ki ([3]; read-out: Human α4β2 Ki): 0.0043 µM
- Ki [4]: 19 µM

Compound: CN[C@@H](C)C/C=C/c1cncc(OC2CN(C(=O)C3CCOCC3)C2)c1
- Ki ([3]; read-out: Human α4β2 Ki): 0.0048 µM

Compound: CN[C@@H](C)C/C=C/c1cncc(O[C@@H]2CCN(C(=O)COC)C2)c1
- Ki ([3]; read-out: Human α4β2 Ki): 0.0091 µM
- Ki [4]: 55 µM

Compound: CN[C@@H](C)C/C=C/c1cncc(O[C@@H]2CCN(C(=O)CC(C)(C)C)C2)c1
- Ki [1]: 260 µM
- Ki [2]: 35 µM
- Ki [3]: 0.032 µM
- Ki [4]: 43 µM

Compound: CN[C@@H](C)C/C=C/c1cnc(Cl)c(O[C@H]2CCN(C(=O)C(C)C)C2)c1
- Ki [1]: 29 µM
- Ki [2]: 16 µM
- Ki ([3]; read-out: Human α4β2 Ki): 0.013 µM
- Ki [4]: 27 µM

Compound: CN[C@@H](C)C/C=C/c1cnc(Cl)c(O[C@@H]2CCN(C(=O)c3ccc(F)cc3)C2)c1
- Ki [1]: 61 µM
- Ki [2]: 3.7 µM
- Ki ([3]; read-out: Human α4β2 Ki): 0.0033 µM
- Ki [4]: 2 µM

Compound: CN[C@@H](C)C/C=C/c1cncc(O[C@H]2CCN(C(=O)C3CCOCC3)C2)c1
- Ki [2]: 51 µM
- Ki ([3]; read-out: Human α4β2 Ki): 0.013 µM
- Ki [4]: 100 µM

Compound: CCC(=O)N1CC(Oc2cncc(/C=C/C[C@H](C)NC)c2)C1
- Ki ([3]; read-out: Human α4β2 Ki): 0.0022 µM

Compound: CN[C@@H](C)C/C=C/c1cncc(O[C@@H]2CCN(C(=O)c3ccc(F)cc3)C2)c1
- Ki [1]: 53 µM
- Ki [2]: 100 µM
- Ki ([3]; read-out: Human α4β2 Ki): 0.0067 µM
- Ki [4]: 6.8 µM

Compound: CN[C@@H](C)C/C=C/c1cnc(Cl)c(O[C@H]2CCN(C(=O)C3CCCC3)C2)c1
- Ki [1]: 160 µM
- Ki [2]: 55 µM
- Ki ([3]; read-out: Human α4β2 Ki): 0.0021 µM
- Ki [4]: 7.6 µM

Compound: CN[C@@H](C)C/C=C/c1cncc(O[C@H]2CCN(C(=O)CC(F)(F)F)C2)c1
- Ki [1]: 68 µM
- Ki [2]: 6.8 µM
- Ki ([3]; read-out: Human α4β2 Ki): 0.003 µM
- Ki [4]: 5.4 µM

Compound: CN[C@@H](C)C/C=C/c1cncc(O[C@H]2CCN(C(=O)OCCOC)C2)c1
- Ki ([3]; read-out: Human α4β2 Ki): 0.053 µM
- Ki ([4]; read-out: Human Ganglion Ki): 270 µM

Compound: CN[C@@H](C)C/C=C/c1cncc(O[C@@H]2CCN(C(=O)C3CC3)C2)c1
- Ki ([3]; read-out: Human α4β2 Ki): 0.0051 µM
- Ki [4]: 83 µM

Compound: CN[C@@H](C)C/C=C/c1cncc(O[C@H]2CCN(C(=O)COC)C2)c1
- Ki ([3]; read-out: Human α4β2 Ki): 0.0044 µM
- Ki [4]: 21 µM

Compound: CCNC(=O)N1CC[C@@H](Oc2cncc(/C=C/C[C@H](C)NC)c2)C1
- Ki ([3]; read-out: Human α4β2 Ki): 0.0099 µM
- Ki [4]: 140 µM

Compound: CN[C@@H](C)C/C=C/c1cncc(O[C@H]2CCN(C(=O)C3CCC3)C2)c1
- Ki [1]: 66 µM
- Ki [2]: 17 µM
- Ki ([3]; read-out: Human α4β2 Ki): 0.018 µM
- Ki [4]: 27 µM

Compound: CN[C@@H](C)C/C=C/c1cnc(Cl)c(O[C@H]2CCN(C(=O)CC(C)(C)C)C2)c1
- Ki [1]: 48 µM
- Ki [2]: 11 µM
- Ki ([3]; read-out: Human α4β2 Ki): 0.0064 µM
- Ki [4]: 15 µM

Compound: CN[C@@H](C)C/C=C/c1cnc(Cl)c(O[C@@H]2CCN(C(=O)C3CCCC3)C2)c1
- Ki [1]: 6.1 µM
- Ki ([3]; read-out: Human α4β2 Ki): 0.0029 µM

Compound: CCNC(=O)N1CC[C@H](Oc2cncc(/C=C/C[C@H](C)NC)c2)C1
- Ki ([3]; read-out: Human α4β2 Ki): 0.061 µM
- Ki [4]: 250 µM

Compound: CN[C@@H](C)C/C=C/c1cncc(O[C@@H]2CCN(C(=O)c3ccco3)C2)c1
- Ki ([3]; read-out: Human α4β2 Ki): 0.0047 µM
- Ki [4]: 50 µM

Compound: CN[C@@H](C)C/C=C/c1cncc(OC2CN(C(=O)COC)C2)c1
- Ki ([3]; read-out: Human α4β2 Ki): 0.0049 µM
- Ki ([4]; read-out: Human Ganglion Ki): 42 µM

Compound: CN[C@@H](C)C/C=C/c1cnc(Cl)c(O[C@H]2CCN(C(=O)c3ccc(F)cc3F)C2)c1
- Ki [1]: 23 µM
- Ki ([3]; read-out: Human α4β2 Ki): 0.022 µM

Compound: CN[C@@H](C)C/C=C/c1cnc(Cl)c(O[C@@H]2CCN(C(=O)CC(F)(F)F)C2)c1
- Ki [1]: 300 µM
- Ki [2]: 8.5 µM
- Ki ([3]; read-out: Human α4β2 Ki): 0.0012 µM
- Ki [4]: 18 µM

Compound: CN[C@@H](C)C/C=C/c1cncc(O[C@@H]2CCN(C(=O)CC3CCCC3)C2)c1
- Ki [1]: 53 µM
- Ki [2]: 170 µM
- Ki ([3]; read-out: Human α4β2 Ki): 0.011 µM
- Ki [4]: 5.8 µM

Compound: CN[C@@H](C)C/C=C/c1cncc(O[C@H]2CCN(C(=O)c3ccco3)C2)c1
- Ki ([3]; read-out: Human α4β2 Ki): 0.0012 µM
- Ki [4]: 72 µM

Compound: CN[C@@H](C)C/C=C/c1cncc(O[C@@H]2CCN(C(=O)OCCOC)C2)c1
- Ki ([3]; read-out: Human α4β2 Ki): 0.0066 µM
- Ki ([4]; read-out: Human Ganglion Ki): 48 µM

Compound: CN[C@@H](C)C/C=C/c1cnc(Cl)c(O[C@@H]2CCN(C(=O)C(C)C)C2)c1
- Ki [1]: 36 µM
- Ki ([3]; read-out: Human α4β2 Ki): 0.0015 µM

Compound: CCC(=O)N1CC[C@H](Oc2cncc(/C=C/C[C@H](C)NC)c2)C1
- Ki [2]: 40 µM
- Ki ([3]; read-out: Human α4β2 Ki): 0.0097 µM
- Ki [4]: 43 µM

Compound: CN[C@@H](C)C/C=C/c1cncc(OC2CN(C(=O)c3ccco3)C2)c1
- Ki ([3]; read-out: Human α4β2 Ki): 0.0028 µM
- Ki ([4]; read-out: Human Ganglion Ki): 20 µM

Compound: CCCOC(=O)N1CC(Oc2cncc(/C=C/C[C@H](C)NC)c2)C1
- Ki ([3]; read-out: Human α4β2 Ki): 0.0039 µM
- Ki [4]: 44 µM

Compound: CN[C@@H](C)C/C=C/c1cncc(OC2CN(C(=O)OCCOC)C2)c1
- Ki ([3]; read-out: Human α4β2 Ki): 0.0096 µM
- Ki [4]: 69 µM

Compound: CN[C@@H](C)C/C=C/c1cncc(O[C@@H]2CCN(C(C)=O)C2)c1
- Ki [2]: 24 µM
- Ki ([3]; read-out: Human α4β2 Ki): 0.0026 µM
- Ki [4]: 41 µM

Compound: CN[C@@H](C)C/C=C/c1cncc(O[C@H]2CCN(C(C)=O)C2)c1
- Ki ([3]; read-out: Human α4β2 Ki): 0.012 µM

Compound: CCC(=O)N1CC[C@@H](Oc2cncc(/C=C/C[C@H](C)NC)c2)C1
- Ki [2]: 88 µM
- Ki ([3]; read-out: Human α4β2 Ki): 0.0019 µM
- Ki [4]: 19 µM

Compound: CN[C@@H](C)C/C=C/c1cncc(O[C@@H]2CCN(C(=O)C3CCOCC3)C2)c1
- Ki ([3]; read-out: Human α4β2 Ki): 0.0044 µM
- Ki [4]: 44 µM

Compound: CN[C@@H](C)C/C=C/c1cnc(Cl)c(O[C@@H]2CCN(C(=O)CC(C)(C)C)C2)c1
- Ki [1]: 6.5 µM
- Ki ([3]; read-out: Human α4β2 Ki): 0.016 µM

Compound: CN[C@@H](C)C/C=C/c1cncc(O[C@H]2CCN(C(=O)C3CC3)C2)c1
- Ki ([3]; read-out: Human α4β2 Ki): 0.014 µM
- Ki [4]: 20 µM

Source: US20150119378A1, “AZETIDINYLOXY-, PYRROLIDINYLOXY-, AND PIPERIDINYLOXY-SUBSTITUTED METANICOTINES AS NEURONAL NICOTINIC ACETYLCHOLINE RECEPTOR LIGANDS” (priority 2013, published 2015)
